Assay [1] addresses T1, PcIDS1 (Phaedon cochleariae, UniProt M1JS91).
T1 construct: N-terminal signal peptide (residues 1-85) removed; N-terminal His6-SUMO tag cut with Ulp1; E. coli BL21(DE3); homodimer; C-terminal residue A429
T1 sequence (M1JS91 86-429): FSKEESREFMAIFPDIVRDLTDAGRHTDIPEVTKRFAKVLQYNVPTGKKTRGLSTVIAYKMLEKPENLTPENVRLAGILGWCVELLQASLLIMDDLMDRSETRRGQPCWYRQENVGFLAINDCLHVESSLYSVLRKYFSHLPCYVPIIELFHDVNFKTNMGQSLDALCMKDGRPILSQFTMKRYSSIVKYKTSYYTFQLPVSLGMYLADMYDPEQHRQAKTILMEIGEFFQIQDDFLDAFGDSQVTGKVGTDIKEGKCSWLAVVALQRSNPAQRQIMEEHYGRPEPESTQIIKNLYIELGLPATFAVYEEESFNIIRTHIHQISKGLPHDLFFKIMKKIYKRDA
In words: thermal shift assay (Sypro Orange). The assay is classed as binding. The conditions noted are these: 5 mM MgCl2, pH 7.0.

For assay [2], the target named is T1, PcIDS1. The experiment in a line: crystal structure. The assay is classed as binding.

Turning to `C=C(C)CCOP(=O)(O)OP(=O)(O)O` [IPP, isopentenyl pyrophosphate], the dTm in assay [1] (allylic and homoallylic sites) is 7 °C. For `CC(C)=CCC/C(C)=C/COP(=O)(O)OP(=O)(O)O` [GPP, geranyl pyrophosphate], the dTm in assay [1] (allylic site in the structure) came to 17 °C. For the same molecule, the crystal structure result in assay [2] (Mn2+, second site, allosteric) is on record as “contains well-defined electron density for a second GPP molecule (GPPAllo; Fig. 3h)”. Consider `O=P(O)(O)C(O)(Cn1ccnc1)P(=O)(O)O` [ZOL, zoledronic acid], for which, in assay [1] (200 µM ligand, allylic site), the dTm is 28 °C. With `CC(C)=CCC/C(Br)=C/COP(=O)(O)OP(=O)(O)O` [3-Br-GPP], the crystal structure in assay [2] (Mg2+, IPP added but not bound, allylic site) is listed as 3-Br-GPP mimics GPPAl coordination.

`CC(C)=CCC/C(C)=C/CC/C(C)=C/COP(=O)(O)OP(=O)(O)O` [FPP, farnesyl pyrophosphate]: the dTm in assay [1] worked out at 7 °C.
